# Tested on: rats
# Test: Forced Swimm Stress model, immobilization period
# Format: in vivo
# Details: 30 mg/kg perorally, once a day for nine days
# Description: The stress-reducing effects of lavender oil was tested in rats by the so-called “Forced Swimm Stress” model (R. D. Porsolt et al. (1978), Eur. J. Pharmacol. 47, 379-391). The stress reaction experimentally elicited by this test in rats is a recognized method for testing stress-induced behaviour. The principle of the test system used involves that rats being put into a water-filled glass cylinder which they can not leave independently, fall into a still state after a short period of swimming (immobilization period). This immobility is interpreted as a reaction to recognizing the hopelessness of the situation (cf. Example 2).
# In order to test the stress-reducing effects of lavender oil, rats were treated over a period of nine days in total with differently high dosages of lavender oil according to European Pharmacopoeia, edition 4 (WS® 1265) once a day. For comparison purposes some animals were treated either with the tricyclic antidepressive agent imipramine used in stress therapy or with a control solution without an active ingredient. On the seventh day of the treatment, the animals were placed into the water-filled glass cylinder for 15 minutes for familiarization purposes. At the final day of the treatment, the animals were placed into the graduated cylinder again for a period of 5 minutes and the period of immobility was measured as a measure of the stress reaction.
compound,measurement,setting,value
CN(C)CCCN1c2ccccc2CCc2ccccc21 [imipramine],immobilization period,,48 ± 6 s
same,inhibition,versus control,67%

# Source: US20080124410A1, “Use Of Lavender Oil For The Prophylaxis And Treatment Of Neurasthenia, Somatization Disorders And Other Stress-Associated Diseases” (priority 2004, published 2008)
